Read-outs that look alike come from different tables or passages of the source.
Experiments:
[1] = biological target: T1, CSF1R (Homo sapiens, UniProt P07333); test: Cellular CSF1R inhibition ELISA (p-CSF1R, M-CSF-induced) using THP-1 cells; assay type: cell-based; parameters: THP-1 cells act as a model for human monocytes; endogenous in cells; host or cells: THP-1
In short: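 THP-1 cells (2×10^5/well, RPMI/10% FBS) were treated with compound, 10 doses in 3-fold steps, for 24 h at 37 °C in 0.2% DMSO final. They were then stimulated 5 min with human M-CSF (10 ng/ml final) and lysed. p-CSF1R was read by sandwich ELISA (HRP/TMB), with a sigmoidal dose-response fit.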

[2] = biological target: T1, CSF1R; test: KINOMEscan competition binding assay for CSF1R; parameters: DNA tag for qPCR (not a peptide); host or cells: E. coli/T7 phage or HEK-293; details: for Kd: read-out: CSF1R kinase binding activity (Kd)
Description: KINOMEscan™ is based on a competition binding assay that quantitatively measures the ability of a compound to compete with an immobilized, active-site directed ligand. The assay is performed by combining three components: DNA-tagged kinase; immobilized ligand; and a test compound. The ability of the test compound to compete with the immobilized ligand is measured via quantitative PCR of the DNA tag.
E. coli were grown to log-phase and infected with T7 phage and incubated with shaking at 32° C. until lysis. The lysates were centrifuged and filtered to remove cell debris. The remaining kinases were produced in HEK-293 cells and subsequently tagged with DNA for qPCR detection. Streptavidin-coated magnetic beads were treated with biotinylated small molecule ligands for 30 minutes at room temperature to generate affinity resins for kinase assays. The liganded beads were blocked with excess biotin and washed with blocking buffer (SeaBlock (Pierce), 1% BSA, 0.05% Tween 20, 1 mM DTT) to remove unbound ligand and to reduce non-specific binding. Binding reactions were assembled by combining kinases, liganded affinity beads, and test compounds in 1× binding buffer (20% SeaBlock, 0.17×PBS, 0.05% Tween 20, 6 mM DTT). Test compounds were prepared as 111× stocks in 100% DMSO. Kds were determined using an 11-point 3-fold compound dilution series with three DMSO control points. All compounds for Kd measurements are distributed by acoustic transfer (non-contact dispensing) in 100% DMSO. The compounds were then diluted directly into the assays such that the final concentration of DMSO was 0.9%. In case of % inhibition, test compounds were prepared as 40× stocks in 100% DMSO and directly diluted into the assay. All reactions performed in polypropylene 384-well plate. Each was a final volume of 0.02 ml. The assay plates were incubated at room temperature with shaking for 1 hour and the affinity beads were washed with wash buffer (1×PBS, 0.05% Tween 20). The beads were then re-suspended in elution buffer (1×PBS, 0.05% Tween 20, 0.5 μM non-biotinylated affinity ligand) and incubated at room temperature with shaking for 30 minutes. The kinase concentration in the eluates was measured by qPCR.
The CSF1R kinase binding activity results are shown in tables 1 (Kd) and 2 (percent inhibition at a concentration of 0.1 uM of compound to be tested).
Binding constants (Kds) were calculated with a standard dose-response curve using the Hill equation: […]
The Hill Slope was set to −1.
Curves were fitted using a non-linear least square fit with the Levenberg-Marquardt algorithm.
Binding % inhibition were calculated with as below:
[formula] • negative control=DMSO (100% Ctrl) • positive control=control compound (0% Ctrl)

[3] = read-out: CSF1R kinase binding activity, Percent (%) inhibition
[4] = read-out: CSF1R kinase binding activity, Range

T1 sequence (P07333 20-972): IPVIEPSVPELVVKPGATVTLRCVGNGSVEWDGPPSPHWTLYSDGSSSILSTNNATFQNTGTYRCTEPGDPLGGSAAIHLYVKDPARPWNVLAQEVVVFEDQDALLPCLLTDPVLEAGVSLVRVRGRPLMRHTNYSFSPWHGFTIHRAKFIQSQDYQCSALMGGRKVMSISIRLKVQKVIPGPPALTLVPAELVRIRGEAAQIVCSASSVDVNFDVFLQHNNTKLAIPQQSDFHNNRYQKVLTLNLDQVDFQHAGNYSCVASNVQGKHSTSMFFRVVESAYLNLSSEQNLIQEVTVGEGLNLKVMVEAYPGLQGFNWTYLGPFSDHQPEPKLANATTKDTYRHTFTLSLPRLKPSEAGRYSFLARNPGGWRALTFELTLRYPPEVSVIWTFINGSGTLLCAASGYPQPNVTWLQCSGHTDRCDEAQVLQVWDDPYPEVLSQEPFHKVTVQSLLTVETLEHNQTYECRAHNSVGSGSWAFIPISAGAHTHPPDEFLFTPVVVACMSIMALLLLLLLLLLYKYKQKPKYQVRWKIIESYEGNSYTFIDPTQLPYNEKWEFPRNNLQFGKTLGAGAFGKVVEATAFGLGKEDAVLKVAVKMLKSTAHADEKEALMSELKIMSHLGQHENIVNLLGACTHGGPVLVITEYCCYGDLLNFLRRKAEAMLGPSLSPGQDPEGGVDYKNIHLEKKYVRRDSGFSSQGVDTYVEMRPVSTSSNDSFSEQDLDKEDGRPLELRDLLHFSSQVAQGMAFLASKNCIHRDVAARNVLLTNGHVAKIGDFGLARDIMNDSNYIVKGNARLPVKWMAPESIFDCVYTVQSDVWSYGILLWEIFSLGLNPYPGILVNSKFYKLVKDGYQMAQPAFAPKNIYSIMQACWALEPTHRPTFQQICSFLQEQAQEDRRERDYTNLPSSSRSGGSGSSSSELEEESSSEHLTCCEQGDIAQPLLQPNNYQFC

| SMILES | IC50 [1] | inhibition at 0.1 µM [2, 3] | inhibition at 0.1 µM [2, 4] | Kd [2] |
| --- | --- | --- | --- | --- |
| CCCn1cc(OCC2CCC2)c(C(=O)Nc2ccc(Oc3ccnc4cc(OC)c(OC(F)(F)F)cc34)cn2)n1 [Compound 167] | ≥ 1000 nM | 0% | < 50% | – |
| COc1cc2nccc(Oc3ccc(NC(=O)c4nn(CCO)cc4OCC(F)(F)F)nc3)c2cc1OC [Compound 67] | < 500 nM | 96% | ≥ 80% | – |
| COc1cc2nccc(Oc3ccc(NC(=O)c4nn(C5CCC5)cc4OCC(F)(F)F)nc3)c2cc1OC [Compound 24] | < 500 nM | 96% | ≥ 80% | – |
| COc1cc2nccc(Oc3ccc(NC(=O)c4nn(C5CCCC5)cc4OCC(F)(F)F)cc3)c2cc1OC [Compound 60] | 500 to 1000 nM | 75% | 50 to 80% | – |
| CCCn1cc(OCC(F)(F)F)c(C(=O)Nc2ccc(Oc3ccnc4cc(OC)c(OC)cc34)nn2)n1 [Compound 32] | < 500 nM | 95% | ≥ 80% | – |
| COc1cc2nccc(Oc3ccc(NC(=O)c4nc(CCC(F)(F)F)oc4CCC4CCC4)nc3)c2cc1OC [Compound 176] | ≥ 1000 nM | 40% | < 50% | – |
| CCCn1cc(OCCC(F)(F)F)c(C(=O)Nc2ccc(Oc3ccnc4cc(OC)c(OC)cc34)cn2)n1 [Compound 31] | < 500 nM | 95% | ≥ 80% | – |
| CCCn1cc(OCC(F)(F)F)c(C(=O)Nc2ccc(Oc3ccnc4cc(OC)c(OC)cc34)cc2)n1 [Compound 38] | 500 to 1000 nM | 87% | ≥ 80% | – |
| CCCn1cc(OCCF)c(C(=O)Nc2ccc(Oc3ccnc4cc(OC)c(OC)cc34)cn2)n1 [Compound 14] | < 500 nM | 98% | ≥ 80% | < 100 nM |
| COc1cc2nccc(Oc3ccc(NC(=O)c4nn(CCO)cc4OCC(F)(F)F)cc3C)c2cc1OC [Compound 56] | < 500 nM | 0% | < 50% | – |
| COc1cc2nccc(Oc3ccc(NC(=O)c4nn(CC(C)C)cc4OCC(F)(F)F)cc3C)c2cc1OC [Compound 58] | ≥ 1000 nM | 76% | 50 to 80% | – |
| COc1cc2nccc(Oc3ccc(NC(=O)c4nn(C5CC5)c(C(C)=O)c4OCC(F)(F)F)nc3)c2cc1OC [Compound 3] | < 500 nM | 71% | 50 to 80% | 100 to 500 nM |
| COc1cc2nccc(Oc3ccc(NC(=O)c4nn(CC5CCCC5)cc4OCC(F)(F)F)nc3)c2cc1OC [Compound 71] | < 500 nM | 88% | ≥ 80% | – |
| COCCn1cc(OCC(F)(F)F)c(C(=O)Nc2ccc(Oc3ccnc4cc(OC)c(OC)cc34)cc2)n1 [Compound 61] | ≥ 1000 nM | 76% | 50 to 80% | – |
| COc1cc2nccc(Oc3ccc(NC(=O)c4cc(C5CC5)cnc4OCC(F)(F)F)nc3)c2cc1OC [Compound 178] | < 500 nM | – | – | – |
| CCCn1cc(OC(C)C)c(C(=O)Nc2ccc(Oc3ccnc4cc(OC)c(OC(F)(F)F)cc34)c(F)c2)n1 [Compound 35] | ≥ 1000 nM | 6% | < 50% | – |
| COc1cc2nccc(Oc3ccc(NC(=O)c4nn(CCC(F)(F)F)cc4OCC4CCC4)nc3)c2cc1OC [Compound 166] | ≥ 1000 nM | 84% | ≥ 80% | – |
| COc1cc2nccc(Oc3ccc(NC(=O)c4nn(C5CCCC5)cc4OCC(F)(F)F)nc3)c2cc1OC [Compound 40] | < 500 nM | 94% | ≥ 80% | – |
| COCCn1cc(OCC(F)(F)F)c(C(=O)Nc2ccc(Oc3ccnc4cc(OC)c(OC)cc34)c(F)c2)n1 [Compound 54] | ≥ 1000 nM | 81% | ≥ 80% | – |
| COc1cc2nccc(Oc3ccc(NC(=O)c4nn(C5CCNC5)cc4OCC(F)(F)F)c(F)c3)c2cc1OC (stereo not shown) [Compound 74] | ≥ 1000 nM | 39% | < 50% | – |

| SMILES | IC50 [1] | inhibition at 0.1 µM [2, 3] | inhibition at 0.1 µM [2, 4] | Kd [2] |
| --- | --- | --- | --- | --- |
| COc1cc2nccc(Oc3ccc(NC(=O)c4nn(C5CCOC5)cc4OCC(F)(F)F)nc3)c2cc1OC (stereo not shown) [Compound 13] | < 500 nM | 98% | ≥ 80% | < 100 nM |
| COc1cc2nccc(Oc3ccc(NC(=O)c4nn(CC(C)(F)F)cc4OCC(F)(F)F)nc3)c2cc1OC [Compound 64] | < 500 nM | 95% | ≥ 80% | – |
| COc1cc2nccc(Oc3ccc(NC(=O)c4nn(CCNC5CC5)cc4OCC(F)(F)F)nc3)c2cc1OC [Compound 168] | < 500 nM | 95% | ≥ 80% | – |
| COCCn1cc(OCC(F)(F)F)c(C(=O)Nc2ccc(Oc3ccnc4cc(OC)c(OC)cc34)cc2F)n1 [Compound 49] | ≥ 1000 nM | 66% | 50 to 80% | – |
| CCCn1cc(OCC(F)(F)F)c(C(=O)Nc2ccc(Oc3ccnc4cc(OC)c(OC)cc34)c(F)c2)n1 [Compound 25] | 500 to 1000 nM | 87% | ≥ 80% | – |
| COc1cc2nccc(Oc3ccc(NC(=O)c4nn(CC(C)O)cc4OCC(F)(F)F)nc3)c2cc1OC (stereo not shown) [Compound 17] | < 500 nM | 97% | ≥ 80% | – |
| COc1cc2nccc(Oc3ccc(NC(=O)c4nn(CC(C)O)cc4OCC(F)F)nc3)c2cc1OC (stereo not shown) [Compound 175] | < 500 nM | 97% | ≥ 80% | – |
| COc1cc2nccc(Oc3ccc(NC(=O)c4nn(CCO)cc4OCC(F)(F)F)c(F)c3)c2cc1OC [Compound 46] | 500 to 1000 nM | 96% | ≥ 80% | – |
| COc1cc2nccc(Oc3ccc(NC(=O)c4nn(CC5CC5)cc4OCC(F)(F)F)nc3)c2cc1OC [Compound 41] | < 500 nM | 97% | ≥ 80% | – |
| COc1cc2nccc(Oc3ccc(NC(=O)c4nn(C5CCOC5)cc4OCC(F)(F)F)cc3F)c2cc1OC (stereo not shown) [Compound 55] | ≥ 1000 nM | 60% | 50 to 80% | – |
| COc1cc2nccc(Oc3ccc(NC(=O)c4nn(CCOC5CCC5)cc4OCC(F)(F)F)nc3)c2cc1OC [Compound 65] | < 500 nM | 96% | ≥ 80% | – |
| COc1cc2nccc(Oc3ccc(NC(=O)c4nn(C5CCCC5)cc4OCC(F)(F)F)cc3C)c2cc1OC [Compound 57] | 500 to 1000 nM | 97% | ≥ 80% | – |
| COc1cc2nccc(Oc3ccc(NC(=O)c4nn(CCCO)cc4OCC(F)(F)F)nc3)c2cc1OC [Compound 18] | < 500 nM | 97% | ≥ 80% | – |
| COc1cc2nccc(Oc3ccc(NC(=O)c4nn(C[C@@H](C)O)cc4OCC(F)(F)F)nc3)c2cc1OC [Compound 29] | < 500 nM | 99% | ≥ 80% | – |
| COc1cc2nccc(Oc3ccc(NC(=O)c4nn(CC5CCOC5)cc4OCC(F)(F)F)nc3)c2cc1OC (stereo not shown) [Compound 44] | < 500 nM | 82% | ≥ 80% | – |
| CCCn1cc(OCC(F)(F)F)c(C(=O)Nc2ccc(Oc3ccnc4cc(OC)c(OC)cc34)c(C)c2)n1 [Compound 26] | < 500 nM | 94% | ≥ 80% | – |
| CCCn1cc(N(C)CC2CCOCC2)c(C(=O)Nc2ccc(Oc3ccnc4cc(OC)c(OC)cc34)cn2)n1 [Compound 34] | ≥ 1000 nM | – | – | – |
| COc1cc2nccc(Oc3ccc(NC(=O)c4sc(C5CC5)cc4OCC(F)(F)F)nc3)c2cc1OC [Compound 179] | < 500 nM | – | – | – |
| CCCn1cc(OCCN(C)C)c(C(=O)Nc2ccc(Oc3ccnc4cc(OC)c(OC)cc34)cn2)n1 [Compound 177] | ≥ 1000 nM | – | – | – |
